Test results published in patent US20040248918A1, “N-phenyl-2-pyrimidine-amine derivatives and process for the preparation thereof” (IL YANG PHARM. CO., LTD., priority 2003, published 2004).

Assays:
[1] = Acute toxicity test in mice (intravenous administration); format: in vivo; conditions: both sexes, ICR, mouse, in vivo, iv; mice, intravenously administered
Method: (§1) In this test, the acute toxicity of the compound of the present invention when the compound is intravenously administered was determined on mice (ICR, 24˜26 g). One group consists of 10 males and 10 females. The first group is the control group and physiological saline was intravenously administered to this group. The compound of Example 10 was intravenously administered in dosages of 25, 50, 75, and 100 mg/kg, respectively, to each test group. […] On the last day of the test, 14th day from the start, the mice were subjected to an autopsy in order to examine changes of the internal organs. […] No mouse died in these test groups. Further, in the test group of 100 mg/kg dosage, 8 mice among 10 died within 10 minutes after the administration.

mice (ICR) [2] = experiment: as above; format: in vivo
Method: as §1

sarcoma-180 = experiment: Anti-cancer activity in sarcoma animal model; format: in vivo, ICR mouse; conditions: day 30; for Average tumor weight (Mean ± S.E.): three times at intervals of 4 days, in g (unit assumed)
Method: The anti-cancer activity against sarcoma-180 was determined using ICR mouse (22˜25 g, male). Sarcoma-180 (0.1 ml; 5×10^7 cells/ml) was hypodermically implanted to the left inguinal area of the mouse. After 72 hours from the hypodermic implantation, physiological saline was intravenously administered to the control group. For the test groups, the compound of Example 10 dissolved in physiological saline in a concentration of 25 or 50 mg/kg was intravenously administered three times at intervals of 4 days. On the 30th day from the implantation of the tumor cell, the mice were sacrificed to take out the induced solid tumors. The solid tumors were weighed, the average weight of the tumors was obtained, and the percent inhibition ratio was calculated according to the following formula:
Inhibition ratio (I.R.) (%)=[(Cw−Tw)/Cw]×100
I.R. represents the percent inhibition ratio,
Cw represents the average weight of tumor of the control group; and
Tw represents the average weight of tumor of the test group.

[3] = test system: lymphoma cell (RPMI-6666); experiment: Growth inhibition of RPMI-6666 (MTT); format: cell-based; conditions: for IC50: Homo sapiens
Method: In the present experiment, the inhibitory activity of the compound of formula (1) was determined against the growth of K562 cancer cell. First, the cells were allowed to stand in RPMI (Roswell Park Memorial Institute)-1640 medium containing 10% (v/v) fetal bovine serum in an incubator of 37° C. and 5% by volume of CO2. The cancer cells (1000 cells) were transferred to a 96-well plate, and the test compound was diluted. The plate was allowed to stand under the above mentioned conditions for 2 days. After this treatment, to the cells was added 0.2% MTT (3-[4,5-dimethylthiazol-2-yl]-2,5-diphenyltetrazolium bromide) solution, and the resulting mixture was allowed to stand under the constant temperature-condition for 4 hours. The supernatant was removed to leave the resulting crystal. DMSO was added to dissolve the crystal, and the absorbance of the solution was measured at 540 nm. IC50 value was calculated using a computer system according to the following formula: […]
The test was performed according to the same procedure as Experiment 1.

[4] = Comparative pharmacokinetic test in white rats; format: in vivo, white rats (Sprague-Dawley); conditions: rat
Method: On the previous day to the test, white rats (Sprague-Dawley, 250˜280 g, male) were put under anesthesia by pentobarbital sodium (50 mg/kg, I.P.). Then, cannula (polyethylene tube; diameter: 0.58mm) was introduced into the rats via the carotid artery and jugular vein, and drawn out to the back. After the operation, the rats were fasted for 16 hours and used for the test. […] Blood was collected in 0, 0.5, 1, 1.5, 2, 2.5, 3, 3.5, 4, 4.5, 5, 6, 8, 10, 12, and 24 hours from the carotid artery. The samples for HPLC analysis were prepared using the collected blood according to the following procedure and were analyzed under the following conditions.
Blood was collected by an amount of 0.5 ml at each prearranged time and centrifuged at 15000 rpm for 7 minutes to separate […] of plasma. In order to remove proteins, MeOH was added in an amount of […], twice as much as the amount of plasma, and the mixture was shaken for 30 minutes. The mixture was centrifuged again at 15000 rpm for 5 minutes to give protein free supernatant, which was then analyzed by HPLC.
Flow rate: 1.0 ml/min, UV detection at 267 nm
Column: 4.6×150 mm, 5C18-AR-II, COSMOSIL
Eluent: Mixture of ion pair sample (420 ml) and MeOH (580 ml)
Ion pair sample: 7.5 g of 1-octanesulfonic acid was dissolved in 800 ml of water. The resulting mixture was adjusted to pH 2.5 using phosphoric acid and diluted with water to 1000 ml volume.
Here, the pharmacokinetic parameters are Tmax (time to reach the maximum blood concentration), Cmax (maximum blood concentration), AUC (area under the curve of time-blood concentration), and T1/2 (half time in blood), and the AUC was calculated under trapezoid rule (see Tables 6, 7 and FIGS. 1, 2).

[5] = test system: pancreatic cancer cell of CAPAN-2; experiment: Growth inhibition of CAPAN-2 (MTT); format: cell-based; conditions: for Improved activity versus 5-Fu / Improved activity versus cisplatin: CAPAN-2; for IC50: Homo sapiens, Capan-2, read-out: IC50
[6] = Acute toxicity test in mice (oral administration); conditions: both sexes, ICR, mouse, in vivo, 2000 mg/kg; mice, oral
Method: (§2) In order to determine the acute toxicity of the compound of the present invention when the compound is orally administered, mice (ICR, 24˜26 g) were fasted for 16 hours. One group consists of 10 males and 10 females. The first group is the control group and physiological saline was administered per oral to this group. The compounds of Examples 2 and 4 were orally administered in a dosage of 2000 mg/kg, the maximum dosage in acute toxicity test, to each test group. […] On the last day of the test, 14th day from the start, the mice were subjected to an autopsy in order to examine changes of the internal organs. […] This means that the compounds of the present invention including those of Examples 2 and 4 are safe in the aspect of acute toxicity.

mice (ICR) [7] = experiment: Acute toxicity test in mice (oral administration); conditions: mouse, in vivo, po, 2000 mg/kg
Method: as §2

[8] = male, Sprague-Dawley, plasma, iv, 50 mg/kg, I.V.
[9] = male, Sprague-Dawley, plasma, po, 50 mg/kg, P.O.

SMILES: CN1CCCN(Cc2ccc(C(=O)Nc3ccc(Nc4nccc(-c5cccnc5)n4)cc3)cc2)CC1.CS(=O)(=O)O [Example 10, 4-(4-methylhomopiperazin-1-ylmethyl)-N-[4-(4-(pyridin-3-yl)pyrimidin-2-yl)aminophenyl]benzamide methanesulfonate]
- LD50 at 14 days [1]: 75 to 100 mg/kg
- Clinical conditions and autopsy (mice (ICR) [2]; 25 mg/kg i.v., 14 days): neither abnormal response nor specific autopsy
- Mice died (mice (ICR) [2]; 100 mg/kg i.v., within 10 minutes after the administration): 8 mice among 10
- Clinical conditions (mice (ICR) [2]; 50 and 75 mg/kg i.v.): weak trembling immediately after the administration
- Mortality (mice (ICR) [2]; 50 and 75 mg/kg i.v.): No mouse died
- Time to recovery from trembling (mice (ICR) [2]; 50 and 75 mg/kg i.v.): ≤ 1 h
- Percent Inhibition Ratio (I.R.) (sarcoma-180; 25 mg/kg i.v.): 36.1%
- Average tumor weight (Mean ± S.E.) (sarcoma-180; 25 mg/kg i.v.): 2.09 ± 1.4
- Percent Inhibition Ratio (I.R.) (sarcoma-180; 50 mg/kg i.v.): 63.0%
- Average tumor weight (Mean ± S.E.) (sarcoma-180; 50 mg/kg i.v.): 1.21 ± 1.2
- IC50 as fraction of that of Imatinib mesylate [3]: 1/15
- IC50 [3]: 2.12 µg/mL
- AUC [4, 8]: 8920 ng·h/mL
- half-life [4, 8]: 1.37 h
- Improved activity versus 5-Fu [5]: > 20 times
- Improved activity versus cisplatin [5]: more than 10 times
- IC50 [5]: 45.9 µg/mL

SMILES: CS(=O)(=O)O.Cc1ccc(NC(=O)c2ccc(CNN3CCN(C)CC3)cc2)cc1Nc1nccc(-c2cccnc2)n1 [Example 4, 4-(4-methylpiperazin-1-ylaminomethyl)-N-[4-methyl-3-(4-(pyridin-3-yl)pyrimidin-2-yl)aminophenyl]benzamide methanesulfonate]
- LD50 at 14 days [6]: ≥ 2000 mg/kg
- Clinical conditions and autopsy (mice (ICR) [7]): neither abnormal response nor specific autopsy result was observed
- Mortality during the test period (mice (ICR) [7]): no mouse died
- IC50 [3]: 33.8 µg/mL
- Cmax [4, 9]: 3160 ng/mL
- Tmax [4, 9]: 2 h
- AUC ([4]; male, Sprague-Dawley, plasma, po, 50 mg/kg, P.O., trapezoid rule): 23000 ng·h/mL
- AUC relative to Imatinib mesylate ([4]; both per oral 100 mg/kg): about twice
- Cmax relative to Imatinib mesylate ([4]; both per oral 100 mg/kg): about twice
- Improved activity versus 5-Fu [5]: 17 times
- Improved activity versus cisplatin [5]: 9 times
- IC50 [5]: 56.3 µg/mL
